Patent publication US20200206248A1, “COMBINED MEDICINAL PREPARATION FOR TREATING VIRAL INFECTIONS” (ALLA CHEM, LLC, priority 2017, published 2020)

Tests used:
[1] = Acute toxicity of SODF, intragastric administration to mice; type: in vivo; conditions: 3000 mg/kg
Method: (§1) Evaluation of SODF acute toxicity and tolerated toxic and lethal doses for single intragastric administration to male and female mice and rats. Evaluation was carried out for 24 male rats weighing 235-260 g and […] female rats weighing 225-250 g as well as for 24 male mice weighing 21-25 g and 24 female mice weighing 20-24 g. All in all, there were 8 groups in each of the four categories. SODF was administered in the largest possible volume 10 ml/kg three times a day at a 40-minute interval. Prior to administration, SODFs were dispersed, then ground in a mortar and mixed with a 0.5% Tween 80 solution to obtain a suspension suitable for intragastric administration to animals at a dose of ≤10 ml/kg. Solutions for administration were always prepared on the day of administration. Prepared SODF suspensions were administered at the same time every day (within a deviation of maximum 4 hours). […] On each of the 14 days following SODF administration, the weights of rats and mice were recorded and the animals were examined to detect any cases of death or abnormal condition. In this way, parameters of acute SODF toxicity were established.

[2] = Acute toxicity of SODF, intragastric administration to rats; type: in vivo; conditions: 3000 mg/kg
Method: as §1

[3] = test system: HBV; test: Anti-HBV activity in AD38 cells (secreted HBV DNA, qPCR); type: cell-based; conditions: 4-day incubation
Method: (§2) Anti-HBV activity of tenofovir of formulas 4f, 4h, 4k, 4m (test compounds) was evaluated in the cell line of human hepatoma AD38 carrying integrated HBV DNA with terminal repeats [Lander S, et. al, Antimicrobial Agents and Chemotherapy, 1997, pp. 1715-1720]. The cell line was made available by Dr. C. Seeger, Fox Chase Cancer Center, Philadelphia, Pa.). Simultaneously, cytotoxicity was evaluated.
The cells were cultivated in complete DMEM/F12 culture medium containing 2 mM of L-glutamine (Thermo Scientific, Cat #11320033), 10% fetal bovine serum (ThermoFisher Scientific, Cat#), 1% antibiotic-antimycotic solution (ThermoFisher Scientific, Cat#15240096), and 0.3 μg/ml of tetracycline (Sigma, Cat # T7660-5G). The cells were seeded into 96-well Corning Biocoat plates (Corning, Cat # 356407) in 225 μl of complete medium without tetracycline, 20 000 cells per well. The test compounds were dissolved first in DMSO (Sigma cat. D2650), then in DMEM/F12 medium, and 9 dilutions in log 3 steps (225 μl) were added to the cells. The final concentrations of test compounds varied from […] to 1 nM. […]
The technique of real-time quantitative polymerase chain reaction (RT-qPCR) was applied using the CFX96TM Real-Time System instrument (Bio-Rad, Hercules, Calif.) and polymerase AmpliTaq Gold® DNA Polymerase (Applied Biosystems®). […]
The fluorescent signal was read at the end of each cycle. […]

[4] = test system: AD38 cell line; test: Cytotoxicity in AD38 cells (ATPLite); type: cell-based, human; conditions: 3 days
Method: as §2
The cytotoxicity of test compounds was determined simultaneously on the same AD38 cell line. The cells were cultivated in a 96-well black plate with a transparent bottom (10^4 cells/well) in complete DMEM/F12 medium containing 2 mM of L-glutamine (Thermo Scientific, Cat #11320033), 10% fetal bovine serum (ThermoFisher Scientific, Cat#), and 1% antibiotic-antimycotic solution (ThermoFisher Scientific, Cat#15240096). The AD38 cells were seeded in 96-well plates (7.5×10^3 cells/well in 100 μl of medium). The solutions of test compounds in DMEM were prepared immediately before use. […] The number of living cells was counted using the ATPLite kit (Perkin Elmer, Boston, USA) in compliance with manufacturer's instructions. […] After additional 5-minute incubation on a rocking platform at 600 rev/min, the plates were kept in dark for 10 minutes, and the luminescence was read using TopCount NXT (Packard, Perkin Elmer). […] CC50 values (Table 2) were then determined using XLfit 4 software.

[5] = test system: SupT1 cells; test: Cytotoxicity in non-infected SupT1 cells (XTT reagent); type: cell-based
Method: (§3) The anti-HIV activity of active ingredients (test compounds) was evaluated using SupT1 cells. The cells were infected with the NL4.3 HIV strain carrying a gene of green fluorescence protein (NL4.3-GFP). The virus preparation was obtained by transfection of 293T cells of proviral DNA. Forty-eight hours after the transfection, the preparation was frozen and stored until use. To enhance the infection efficiency, the suspension of SupT1 cells was precipitated from the infection mixture by centrifugation. Test compounds were added to the cells immediately before virus addition. After a 2-hour incubation, the infection mixture was replaced by fresh culture medium with test compounds. The infection efficiency was evaluated following 45 hours by counting the percent of fluorescing cells against noninfected cell cultures. The cytotoxicity of test compounds was evaluated simultaneously at the same, but not infected, SupT1 cellular line using the XTT reagent. To this end, serial ten-fold dilutions of test compounds were prepared (starting with 10 μM to evaluate viral activity or with 100 μM to evaluate cytotoxicity). […] As a result, the values of activity EC50, cytotoxicity CC50, and selectivity index SI were calculated. The test quality was evaluated using the following controls: signal to background ratio, integrase inhibitor raltegravir (1 μM), and reproducibility of the test. […]

[6] = test system: NL4.3 HIV strain (NL4.3-GFP); test: Anti-HIV activity in SupT1 cells infected with NL4.3-GFP; type: cell-based; conditions: read after 45 hours
Method: as §3

Row | SMILES | body weight gain [1] | body weight gain [2] | EC50 [3] [nM] | CC50 [4] [nM] | CC50 [5] [nM] | EC50 [6] [nM]
1 | CCC(=O)[N-]S(=O)(=O)c1ccc(NC(=O)Cc2ccc(Br)c(Oc3cc(Cl)cc(C#N)c3)c2F)c(Cl)c1.[Na+] [Compound 1a, elsulfavirine sodium] | did not affect body weight gain | did not affect body weight gain |  |  |  | 
2 | CC(C)OC(=O)[C@H](C)N[P@](=O)(CO[C@H](C)Cn1cnc2c(N)ncnc21)Oc1ccccc1 [Compound 4f, tenofovir alafenamide hemifumarate] |  |  | 0.3 to 0.7 | 3000 | > 100000 | 43
